Data from patent US20190076510A1, “PROTEIN KINASE C INHIBITION TO EXTEND TISSUE PLASMINOGEN ACTIVATOR TREATMENT FOR ISCHEMIC DISEASE” (THE REGENTS OF THE UNIVERSITY OF MICHIGAN, priority 2017, published 2019).

Experiments:
[1] = tested on: photothrombotic MCAO mice; assay: MCAO-induced cerebral vascular permeability to fluorescent-labeled 70 kDa dextran; format: in vivo, mouse; conditions: separate experiments
acute ischemic stroke = conditions: intravenous rtPA within 3-4.5 hours; cited from earlier work
[2] = tested on: photothrombotic MCAO mice; assay: Hemorrhagic transformation (ICH) after MCAO with late rtPA thrombolysis; format: in vivo, mouse; conditions: rtPA given 5 hours after stroke
From the text: Transgenic mouse lines and commercially available laboratory mouse strains (Jackson Labs) were bred using standard procedures. These strains include wild-type C57BL/6J mice, and C57BL/6J mice with diet-induced obesity. Transgenic mice include mice deficient in tissue type plasminogen activator (tPA^−/−), mice expressing the S490A mutant of occludin, and mice expressing Cre under the vascular endothelium. The numbers of mice used are necessary to maintain the breeding colonies and to obtain statistical significance in the experiments. Mouse pups are weaned at 3 weeks of age. Mice are marked with standard mouse ear tags. […] Both male and female mice are used, but are initially analyzed separately. […]
Using the Tek promoter for control of stop flox expression, however, leads to 85% of bone marrow-derived cells expressing the gene as well as endothelial cells (Genesis. 2010 September; 48(9):563-7)). […] Expression of Tg:S490AOcc^+/+ reduced permeability induced by MCAO, as measured using 70 kDa dextran labeled with Texas Red (dextran). […] Five images surrounding the infarct were taken and mean pixel intensity was determined using Imaris software, averaged for each mouse with n of at least 8 mice. […]
In addition to these studies, the effect of the PKC-β inhibition on hemorrhagic transformation was measured after tPA induction in MCAO mice. […]

[3] = tested on: vascular permeability in the eye; conditions: in vivo; cited from earlier work

In the case of `CN(C)C[C@@H]1CCn2cc(c3ccccc32)C2=C(C(=O)NC2=O)c2cn(c3ccccc23)CCO1` [LY333531], the “reduction in cerebral permeability to dextran (surgical removal of ischemic region and penumbra, dye extraction)” value [1] is reported as roughly 30%.
For “rtPA: recombinant tissue plasminogen activator, thrombolytic”, the “patients having absolute benefit” value (acute ischemic stroke) is listed as 90 out of 1000 and the “hemorrhagic transformation from late rtPA treatment (area of hemoglobin in serial brain sections)” value [2] is listed as “clear increase”.
In the case of `CN(C)C[C@@H]1CCn2cc(c3ccccc32)C2=C(C(=O)NC2=O)c2cn(c3ccccc23)CCO1` [Ruboxistaurin®], the “vascular permeability and edema in the eye” value [3] is given as “shown to reduce vascular permeability and edema in the eye”.
